These results are taken from patent US9328099B2, “Cyanomethylpyrazole carboxamides as janus kinase inhibitors” (Merck Sharp & Dohme Corp., priority 2011, dated 2016).

The target of assay [1] is JAK1 (Homo sapiens (Human), UniProt P23458). The assay can be described thus: Jak Biochemical HTRF Assay, JAK1. Conditions: HTRF biochemical assay, GST-tagged catalytic domain; top concentration tested […]; read-out: JAK1 IC50. The source says:
(§1) Jak Biochemical HTRF Assay Protocol
(§2) Subsequent reagent additions employed an Agilent Bravo.

Assay [2] addresses JAK2 (Homo sapiens (Human), UniProt O60674). The assay can be described thus: Jak Biochemical HTRF Assay, JAK2. Conditions: HTRF biochemical assay, GST-tagged catalytic domain; top concentration tested […].
From the text: as §1, §2
For orientation: In TR-FRET formats the signal depends on donor and acceptor labels being close together.

Chain of JAK1 (P23458 875-1153): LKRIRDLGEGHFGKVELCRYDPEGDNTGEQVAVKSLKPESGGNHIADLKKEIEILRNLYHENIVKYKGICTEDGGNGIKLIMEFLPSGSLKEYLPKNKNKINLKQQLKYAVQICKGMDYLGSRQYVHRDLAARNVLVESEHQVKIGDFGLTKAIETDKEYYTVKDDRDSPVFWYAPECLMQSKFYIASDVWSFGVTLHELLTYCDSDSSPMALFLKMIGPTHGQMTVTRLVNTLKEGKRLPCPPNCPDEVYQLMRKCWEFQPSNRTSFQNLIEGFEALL
Chain of JAK2 (O60674 849-1124): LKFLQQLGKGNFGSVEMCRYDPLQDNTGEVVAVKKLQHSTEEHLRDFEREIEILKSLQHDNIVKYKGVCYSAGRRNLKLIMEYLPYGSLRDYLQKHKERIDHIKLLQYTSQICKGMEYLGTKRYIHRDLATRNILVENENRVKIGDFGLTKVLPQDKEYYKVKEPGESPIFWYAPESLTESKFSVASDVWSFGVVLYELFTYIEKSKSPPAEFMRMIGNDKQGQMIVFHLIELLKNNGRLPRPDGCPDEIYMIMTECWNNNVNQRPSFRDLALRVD

As a reminder, the IC50 is the concentration that gives 50% inhibition. For the molecule `Cc1cc(C(=O)N2CCC(CC#N)(n3cc(C(N)=O)c(Nc4ccccc4)n3)CC2)no1` [Example 34-12, 1-{4-(cyanomethyl)-1-[(5-methylisoxazol-3-yl)carbonyl]piperidin-4-yl}-3-(phenylamino)-1H-pyrazole-4-carboxamide], the figures for the concentration for half-maximal inhibition (IC50) in assay [1] and in assay [2] were 15 nM and 195 nM, respectively.

As for `N#CCC1(n2cc(C(N)=O)c(Nc3ccc(F)cc3)n2)CCC(NCCF)CC1` (stereo not drawn) [Example 40-79, Cis or trans 1-{1-(cyanomethyl)-4-[(2-fluoroethyl)amino]cyclohexyl}-3-[(4-fluorophenyl)amino]-1H-pyrazole-4-carboxamide], the IC50 in assay [1] is 8 nM; in assay [2], 133 nM.

With `N#CCC1(n2cc(C(N)=O)c(Nc3ccnc(F)c3)n2)CCC(NCc2cccc(C#N)c2)CC1` (stereo not drawn) [Example 41-14, Cis or trans 1-{4-[(3-cyanobenzyl)amino]-1-(cyanomethyl)cyclohexyl}-3-[(2-fluoropyridin-4-yl)amino]-1H-pyrazole-4-carboxamide], the concentration for half-maximal inhibition (IC50) worked out at 45 nM in assay [1] and 1420 nM in assay [2].

`N#CCC1(n2cc(C(N)=O)c(Nc3ccccc3)n2)CCN(Cc2ccc(C(F)(F)F)cc2)CC1` [Example 21-19, 1-{4-(cyanomethyl)-1-[4-(trifluoromethyl)benzyl]piperidin-4-yl}-3-(phenylamino)-1H-pyrazole-4-carboxamide]: the results for the concentration for half-maximal inhibition (IC50) in assay [1] and in assay [2] were 35 nM and 460 nM, respectively.

Consider `CS(=O)(=O)c1ccc(Nc2nn(C3(CC#N)CN(C(=O)OC4CCOC4)C3)cc2C(N)=O)cc1` (centres unmarked) [Example 30-75, tetrahydrofuran-3-yl 3-(4-carbamoyl-3-{[4-(methylsulfonyl)phenyl]amino)-1H-pyrazol-1-yl)-3-(cyanomethyl)azetidine-1-carboxylate], for which the IC50 worked out at 22 nM in assay [1] and 221 nM in assay [2].

With `N#CCC1(n2cc(C(N)=O)c(Nc3ccccc3)n2)CN(C(=O)Nc2ccc(F)c(F)c2)C1` [Example 38-21, 1-{3-(cyanomethyl)-1-[(3,4-difluorophenyl)carbamoyl]azetidin-3-yl}-3-(phenylamino)-1H-pyrazole-4-carboxamide], the IC50 amounted to 7 nM in assay [1] and 173 nM in assay [2].

For the molecule `N#CCC1(n2cc(C(N)=O)c(Nc3ccnc(F)c3)n2)CCC(NCC(F)(F)F)CC1` (stereo not drawn) [Example 40-93, Cis or trans 1-{1-(cyanomethyl)-4-[(2,2,2-trifluoroethyl)amino]cyclohexyl}-3-[(2-fluoropyridin-4-yl)amino]-1H-pyrazole-4-carboxamide], the IC50 is 166 nM in assay [1] and above 1500 nM in assay [2].

In the case of `N#CCC1(n2cc(C(N)=O)c(Nc3ccnc(F)c3)n2)CCC(Nc2cccc(F)c2)CC1` (stereo not drawn) [Example 40-64, Cis or trans 1-{1-(cyanomethyl)-4-[(3-fluorophenyl)amino]cyclohexyl}-3-[(2-fluoropyridin-4-yl)amino]-1H-pyrazole-4-carboxamide], the figures for the concentration for half-maximal inhibition (IC50) in assay [1] and in assay [2] were 0.05 nM and 2 nM, respectively.

`CC(C)NC(=O)N1CCC(CC#N)(n2cc(C(N)=O)c(Nc3ccccc3)n2)CC1` [Example 38-46, 4-[4-Carbamoyl-3-(phenylamino)-1H-pyrazol-1-yl]-4-(cyanomethyl)-N-(1-methylethyl)piperidine-1-carboxamide]: the half-maximal inhibitory concentration (IC50) in assay [1] is 2 nM; in assay [2] it was 59 nM.

Take `N#CCC1(n2cc(C(N)=O)c(Nc3ccccc3)n2)CN(S(=O)(=O)C(F)(F)F)C1` [Example 37-18, 1-{3-(cyanomethyl)-1-[(trifluoromethyl)sulfonyl]azetidin-3-yl}-3-(phenylamino)-1H-pyrazole-4-carboxamide]: the half-inhibitory concentration (IC50) was 159 nM in assay [1] and 585 nM in assay [2].

As for `N#CCC1(n2cc(C(N)=O)c(Nc3ccccc3)n2)CN(S(=O)(=O)c2ccccc2)C1` [Example 37-19, 1-[3-(cyanomethyl)-1-(phenylsulfonyl)azetidin-3-yl]-3-(phenylamino)-1H-pyrazole-4-carboxamide], the values for the IC50 in assay [1] and in assay [2] were 138 nM and 463 nM, respectively.

For `CCOC(=O)COC(=O)N1CC(CC#N)(n2cc(C(N)=O)c(Nc3ccccc3)n2)C1` [Example 30-60, 2-ethoxy-2-oxoethyl 3-[4-carbamoyl-3-(phenylamino)-1H-pyrazol-1-yl]-3-(cyanomethyl)azetidine-1-carboxylate], the IC50 in assay [1] amounted to 39 nM; in assay [2], 484 nM.

Regarding `N#CCC1(n2cc(C(N)=O)c(Nc3ccccc3)n2)CCN(Cc2ccc3c(c2)OCO3)CC1` [Example 21-10, 1-[1-(1,3-benzodioxol-5-ylmethyl)-4-(cyanomethyl)piperidin-4-yl]-3-(phenylamino)-1H-pyrazole-4-carboxamide], the IC50 was 8 nM in assay [1] and 78 nM in assay [2].

For the molecule `N#CCC1(n2cc(C(N)=O)c(Nc3ccc(F)cc3)n2)CCC(Nc2ccccc2F)CC1` (stereo not drawn) [Example 40-58, Cis or trans 1-{1-(cyanomethyl)-4-[(2-fluorophenyl)amino]cyclohexyl}-3-[(4-fluorophenyl)amino]-1H-pyrazole-4-carboxamide], the concentration for half-maximal inhibition (IC50) in assay [1] is 0.2 nM; in assay [2], 7 nM.

Consider `CS(=O)(=O)N1CCC(CC#N)(n2cc(C(N)=O)c(Nc3ccccc3)n2)CC1` [Example 37-2, 1-[4-(cyanomethyl)-1-(methylsulfonyl)piperidin-4-yl]-3-(phenylamino)-1H-pyrazole-4-carboxamide], for which the IC50 in assay [1] amounted to 0.4 nM; in assay [2] it was 3 nM.

As to `N#CCC1(n2cc(C(N)=O)c(Nc3ccccc3)n2)CCN(C/C=C/c2ccccc2)CC1` [Example 21-17, 1-{4-(cyanomethyl)-1-[(2E)-3-phenylprop-2-en-1-yl]piperidin-4-yl}-3-(phenylamino)-1H-pyrazole-4-carboxamide], the IC50 amounted to 19 nM in assay [1] and 208 nM in assay [2].

Take `N#CCC1(n2cc(C(N)=O)c(Nc3ccccc3)n2)CN(C(=O)Nc2cccc(F)c2)C1` [Example 38-1, 1-{3-(Cyanomethyl)-1-[(3-fluorophenyl)carbamoyl]azetidin-3-yl}-3-(phenylamino)-1H pyrazole-4-carboxamide]: the IC50 in assay [1] came out at 3 nM; in assay [2] it was 68 nM.

`CC(C)(C)OC(=O)N1CCC(CC#N)(n2cc(C(N)=O)c(Nc3ccc(C(C)(C)O)nc3)n2)CC1` [Example 9-6, tert-butyl 4-(4-carbamoyl-3-(6-(2-hydroxypropan-2-yl)pyridin-3-ylamino)-1H-pyrazol-1-yl)-4-(cyanomethyl)piperidine-1-carboxylate]: the IC50 in assay [1] is 0.8 nM; in assay [2], 3 nM.

On to `CC(C)(C)OC(=O)N1CCC(CC#N)(n2cc(C(N)=O)c(Nc3ccc(N4CCOCC4)nc3)n2)CC1` [Example 12-4, tert-butyl 4-(4-carbamoyl-3-{[6-(morpholin-4-yl)aphthal-3-yl]amino}-1H-pyrazol-1-yl)-4-(cyanomethyl)piperidine-1-carboxylate], for which the 50% inhibitory concentration (IC50) in assay [1] came out at 0.8 nM; in assay [2], 3 nM.

For `N#CCC1(n2cc(C(N)=O)c(Nc3ccnc(F)c3)n2)CCC(N2CC(F)C2)CC1` (stereo not drawn) [Example 40-104, Cis or trans 1-[1-(cyanomethyl)-4-(3-fluoroazetidin-1-yl)cyclohexyl]-3-[(2-fluoropyridin-4-yl)amino]-1H-pyrazole-4-carboxamide], the concentration for half-maximal inhibition (IC50) in assay [1] was 0.2 nM; in assay [2], 11 nM.

`CN1CC(CC#N)(n2cc(C(N)=O)c(Nc3ccccc3)n2)C1` [Example 20, 1-[3-(Cyanomethyl)-1-methylazetidin-3-yl]-3-(phenylamino)-1H-pyrazole-4-carboxamide]: the half-inhibitory concentration (IC50) in assay [1] was 358 nM; in assay [2], 1480 nM.

Take `N#CCC1(n2cc(C(N)=O)c(Nc3ccnc(F)c3)n2)CCN(C(=O)CC(F)(F)F)CC1` [Example 35-2, 1-(4-(cyanomethyl)-1-(3,3,3-trifluoropropanoyl)piperidin-4-yl)-3-(2-fluoropyridin-4-ylamino)-1H-pyrazole-4-carboxamide]: the IC50 was 0.2 nM in assay [1] and 10 nM in assay [2].

Take `Cc1ccc(F)cc1N1CCC(CC#N)(n2cc(C(N)=O)c(Nc3ccc(F)cc3)n2)CC1` [Example 3-32, 1-[4-(cyanomethyl)-1-(5-fluoro-2-methylphenyl)piperidin-4-yl]-3-[(4-fluorophenyl)amino]-1H-pyrazole-4-carboxamide]: the results for the IC50 in assay [1] and in assay [2] were 204 nM and above 1500 nM, respectively.

For `CC(C)(C)OC(=O)N1CCC(CC#N)(n2cc(C(N)=O)c(Nc3ccnnc3)n2)CC1` [Example 12-6, tert-butyl 4-[4-carbamoyl-3-(pyridazin-4-ylamino)-1H-pyrazol-1-yl]-4-(cyanomethyl)piperidine-1-carboxylate], the IC50 in assay [1] came to 0.4 nM; in assay [2], 15 nM.

On to `N#CCC1(n2cc(C(N)=O)c(Nc3ccnc(F)c3)n2)CCN(C(=O)OCC2CC2)CC1` [Example 30-49, Cyclopropylmethyl 4-{4-carbamoyl-3-[(2-fluoropyridin-4-yl)amino]-1H-pyrazol-1-yl}-4-(cyanomethyl)piperidine-1-carboxylate], for which the IC50 in assay [1] came out at 0.3 nM; in assay [2], 18 nM.

Turning to `N#CCC1(n2cc(C(N)=O)c(Nc3ccnc(F)c3)n2)CCC(NCc2ccc(Cl)cc2)CC1` (stereo not drawn) [Example 41-15, Cis or trans 1-{4-[(4-chlorobenzyl)amino]-1-(cyanomethyl)cyclohexyl}-3-[(2-fluoropyridin-4-yl)amino]-1H-pyrazole-4-carboxamide], the IC50 in assay [1] came out at 0.1 nM; in assay [2], 2 nM.

Take `N#CCC1(n2cc(C(N)=O)c(Nc3ccnc(F)c3)n2)CCC(NCc2ccc(Cl)cc2)CC1` (stereo not drawn) [Example 41-9, Cis or trans 1-{4-[(4-chlorobenzyl)amino]-1-(cyanomethyl)cyclohexyl}-3-[(2-fluoropyridin-4-yl)amino]-1H-pyrazole-4-carboxamide]: the concentration for half-maximal inhibition (IC50) in assay [1] amounted to 15 nM; in assay [2], 440 nM.

As for `COc1cc(Nc2nn(C3(CC#N)CCN(C(=O)OCC(F)F)CC3)cc2C(N)=O)ccn1` [Example 9-39, 2,2-difluoroethyl 4-{4-carbamoyl-3-[(2-methoxypyridin-4-yl)amino]-1H-pyrazol-1-yl}-4-(cyanomethyl)piperidine-1-carboxylate], the results for the IC50 in assay [1] and in assay [2] were 7 nM and 348 nM, respectively.
